We go through three compounds from patent US20240252517A1, “MINERALOCORTICOID RECEPTOR ANTAGONISTS FOR THE PREVENTION AND/OR TREATMENT OF A CORONAVIRUS INFECTION” (Imaginatives Group Limited, priority 2021, published 2024).

For data set [1], the system named is SARS-CoV-2.
Data set [2] deals with COVID-19. The settings on record: cited from earlier work.
Data set [3] concerns endothelial cells. Conditions: MR activation; result in words; cited from earlier work.

`C[C@@H]1C[C@H]2[C@@H]3CCC4=CC(=O)C=C[C@]4(C)[C@@]3(F)[C@@H](O)C[C@]2(C)[C@@]1(O)C(=O)CO` [HIDEX, dexamethasone]: the “Resorption of pneumonia on day 5 (number of patients)” value in data set [1] (120 h) amounted to 15. For the same compound, the “Fasting glucose” value in data set [1] (after 5 d, mean ± SD, baseline HIDEX 5.9 ± 2.0, SPIDEX 6.89 ± 3.22) is 11.69 ± 6.21 mmol/L. For the same compound, in data set [1] (after 5 d, mean ± SD, baseline HIDEX 24.8 ± 4.6, SPIDEX 24.2 ± 4.1), the Breath rate/min came to 18.4 ± 3.1 min⁻¹. In addition, in data set [1] (after 5 d, mean ± SD, baseline HIDEX 72.4 ± 61.7, SPIDEX 65.75 ± 50.9), the “CRP” value turned out to be 28.1 ± 22.9 mg/L. In data set [1] (after 5 d, mean ± SD, baseline HIDEX 84.7 ± 10.8, SPIDEX 83.8 ± 11.8), this compound gave an HR/min of 89.1 ± 10.6 min⁻¹. The “BPdiast., mm Hg” value in data set [1] (after 5 d, mean ± SD, baseline HIDEX 86 ± 8.6, SPIDEX 85.25 ± 12.40) amounted to 89.0 ± 10.6 mm Hg. Besides, the “Blood oxygen, %” value in data set [1] (after 5 d, mean ± SD, baseline HIDEX 91.8 ± 3.6, SPIDEX 91.7 ± 3.3) came to 94.1 ± 3.0%. Also, the “D-dimer” value in data set [1] (after 5 d, mean ± SD, baseline HIDEX 736.7 ± 680.6, SPIDEX 755.5 ± 606.1) came to 574.8 ± 306.4 ng/mL. Further, the “CRP, mg/l (range in brackets)” value in data set [1] (after 5 d, range, baseline HIDEX 6.4-204, SPIDEX 10.2-209) is “(2.8-83.5) mg/l”. In addition, the “D-dimer, ng/ml (range in brackets)” value in data set [1] (after 5 d, range, baseline HIDEX 85-2500, SPIDEX 145-2500) is “(38-2800) ng/ml”. For the same compound, the “Fasting blood glucose compared to baseline” value in data set [1] (after 5 d, result in words) was “significantly elevated”. The “Loss of smell/taste, % of patients” value in data set [1] (after 5 days treatment, baseline 85% (spironolactone/low dose dexamethasone), 82.5% (high dose dexamethasone)) was 75%. Further, the “BPsyst., mm Hg” value in data set [1] (after 5 d of treatment, mean ± SD, baseline HIDEX 139.6 ± 15.5, SPIDEX 137.5 ± 22.5) is reported as 150.1 ± 20.1 mm Hg. Besides, in data set [1] (of 40 patients per group), the “Deaths (number of patients)” value came out at 1 and the “Deterioration of the Chest X-ray picture assessed on the 5th day (number of patients)” value is reported as 4.
As for `C[C@]12CCC(=O)C=C1C=C[C@@H]1[C@@H]2CC[C@@]2(C)[C@H]1CC[C@@]21CCC(=O)O1` [canrenone], the Patients requiring ventilation in data set [2] (group B given canrenone, group A 49%) is listed as 20%. Besides, in data set [2] (group B given canrenone, group A conventional treatment 36%), the Mortality is given as 13%. Moreover, the D-Dimer levels result in data set [2] (result in words, rose significantly in control group) is recorded as “fell”.
Consider `CC(=O)S[C@@H]1CC2=CC(=O)CC[C@]2(C)[C@H]2CC[C@@]3(C)[C@@H](CC[C@@]34CCC(=O)O4)[C@H]12` [spironolactone], for which the “Exocytosis of Weibel-Palade bodies / Von Willebrand Factor” value in data set [3] was “blocked”.
